{
  "source": "patent US8507547B2",
  "about": "“Anti-fatigue agents and oral compositions containing andrographolide as active ingredient” (Suntory Holdings Limited, priority 2007, dated 2013)",
  "test_system": "Balb/c mice",
  "experiment": "Water-immersion and sleep-disturbance test (weight-loaded forced swimming test, swimming time)",
  "type": "in vivo",
  "text": "The first test is measurement of a swimming time in a water-immersion and sleep-disturbance test. This is described in detail below in Example 1. Mice raised in an environment, such as a water-immersed environment, where they were not allowed to take enough sleep or to take a comfortable posture so that they could take neither physical nor mental rest were weighted and forced to swim, and a length of time that passed until noses of the mice sank under the water for a period of 10 seconds or longer was measured (weight-loaded forced swimming test) to determine their fatigue level.\nThat is to say, since this animal model is a physical and mental fatigue model as well as an organ fatigue model described below, anti-fatigue action against physical and/or mental fatigue would be confirmed if the swimming time becomes longer as a result of administration of the test substance. Such anti-fatigue action is considered to be involved in reduction in fatigue stress, maintenance of physical energy under fatigue conditions (enhancement of body strength), improvement in endurance, and the like.\nEffect of andrographolide on fatigue from water immersion and sleep disturbance was examined using a partially modified method of Tanaka et al. (Neuroscience Let. 352, 159-162, 2003). […] Four out of the five groups were reared as water-immersed groups; the groups were kept in cages in such a manner that each of the cages was filled with tap water at 23° C. with a water depth of 7 mm, instead of a floor covering, so that the mice were immersed in water and deprived of sleep. The mice were immersed in water for two days, andrographolide (Aldrich corp., purity 98%) was forcibly administered orally to the mice with doses of 0.5, 2, 8 mg per kilogram of body weight once daily during the two days (water-immersed and andrographolide-administered group). As a control group, one of the groups was immersed in water for two days, and distilled water was forcibly given orally to the group once daily during the two days (water-immersed control group). The remaining one of the five groups was reared as a normally-reared group; this group was kept in a cage with a normal floor covering, and distilled water was forcibly given orally to the group once daily during the two-day rearing (normally-reared control group). After the two days, each of the mice was provided with a weight corresponding to 8% of its body weight, which weight was attached to its tale, and then the mice were forced to swim in a water tank having a diameter of 18 cm and filled with water having a depth of 30 cm. A length of time that passed until the mice sank under water for a period of 10 seconds or longer (swimming time) was measured (weight-loaded forced swimming test).\nThe swimming time of the mice of the water-immersed group was shorter than that of the mice of the normally-reared group because of fatigue from the water immersion and sleep disturbance. The effect of andrographolide on the fatigue from the water immersion and sleep disturbance was examined by determining recovery of a reduction in the swimming time of the mice of the water-immersed group after the administration of andrographolide.\nIn accordance with the procedure described in Example 1, effect on water-immersion and sleep-disturbance fatigue was examined in a case in which andrographolide was administered alone to mice, a case in which alpha-lipoic acid was administered alone to mice, and a case in which a combination of andrographolide and alpha-lipoic acid was administered to mice. Eight-week-old male Balb/c mice were used as a test animal. […] Four out of the five groups served as water-immersed groups, and each of the groups was kept in a cage filled with tap water at 23° C. with a water depth of 7 mm, instead of a floor covering, so that the mice were immersed in water and deprived of sleep. […]",
  "data": [
    {"smiles": "O=C(O)CCCCC1CCSS1", "note": "(stereo not drawn) [alpha-lipoic acid, 1,2-dithiolane-3-pentanoic acid, reference compound]", "values": [
      {"measurement": "shortening of the swimming time", "setting": "Example 5, FIG. 5, andrographolide 0.25 mg/kg (5a), alpha-lipoic acid 50 mg/kg (5b) or both (5c), orally once daily during two days of water immersion", "value": "prevented from shortening"},
      {"measurement": "increase rate of the swimming time", "setting": "Example 5, swimming time of normally-reared group minus water-immersed control group = 100%, andrographolide 0.25 mg/kg, alpha-lipoic acid 50 mg/kg, alone or combined", "value": 13, "unit": "%"},
      {"measurement": "anti-fatigue action in the fatigue animal model of mice", "setting": "alpha-lipoic acid 50 mg/kg alone or with andrographolide 0.25 mg/kg, during fatigue stress", "value": "anti-fatigue action was produced"}
    ]}
  ]
}
